Laboratory results from patent US20050064382A1, “Method of prevention of lysosomal leakage in eukaryotic cells by using 6-methyluracil based water-soluble compounds and method of producing thereof” (priority 2002, published 2005).

Tests used:
MEL cells = assay: Moderate damage: storage three days at −135° C. then growth in 1% DMSO; type: cell-based, mouse; conditions: 24 hours
Description: The cells were then brought to −135° C. over a two-hour period and stored at this temperature for 3 days. […] The number of cells per ml. is x 10^4, columns represent different assays.

THP-1 cells [1] = assay: Long-term growth of THP-1 cells without change of medium (starvation); type: cell-based, human
THP-1 cells [2] = assay: Longer-duration growth of THP-1 cells after DMSO shock and starvation, live cells; type: cell-based, human
Description: Growth was measured after the administration of “DMSO Shock” and without a change of medium. […] Trypan-blue test was used: the number of live cells per 0.1 ml (based on 4 counting iterations).

[3] = system: Human umbilical cord vein endothelial cells (HUCVEC); assay: HUCVEC Assay 1: enzymatic and mechanical damage; type: cell-based; conditions: after 7 days, without change of medium
Description: Glucural was also tested on two primer cell cultures for protection against cell death in sub-optimal conditions.
Human umbilical cord vein endothelial cells (HUCVEC) were isolated from freshly obtained human umbilical cords in accordance with known methods. HUCVEC were grown in multi-well plates. After saturation of the wells, the assays were initiated. Four wells were used for each experimental group. To cause “mechanical” damage, a higher (2-2½ times) centrifugal speed was used to pick up cells after trypsin treatment. To cause enzymatic damage, full-strength trypsin solution was used instead of the recommended diluted concentration. All assays were started from the last change of medium in wells with saturated cell culture (well bottoms were covered completely by cells). Results were estimated from the percentage of the bottom covered by cells on the last day of the assay.
Assay 1. Enzymatic and mechanical damage to cells: Growth after 7 days, without change of medium.

[4] = system: neurons from rat embryos brains; assay: Survival of rat embryo brain neurons after mechanical damage; type: cell-based; conditions: for number of live neurons vs culture without Glucural: 500 mkg/ml
From the text: One particularly attractive application of the cytoprotective quality of 6-methyluracil compounds is to extend the life span of primer cell cultures. Primer cell cultures are cell cultures obtained from various tissues. They are used routinely for new drug screening in pharmaceutical industry. The problem associated with many primer cell cultures is their general inability to propagate and grow, leading to their early death and therefore limiting their use in drug research. For example, a rat embryo brain neuron cell culture has about 80% mortality in 12-14 days.
The following is an example of the difficulty in maintaining the survival rate of primer cell cultures. […] The term “growing” of these primer cell cultures means maintaining their survival for a 10-15 day period. But these cell cultures are very valuable as test objects and are commonly used for the initial testing of new drugs (drug screening). Glucural was tested on the neurons from rat embryos brains that were transferred into cell cultures. The viability of these neurons was tested during 2 stages of the production of embryonic neuron cell cultures: 1) mechanical disassembly and washing, and 2) the “growing” of the cell culture.
After 7 days, this ratio increased to nearly triple as shown on FIGS. 1 and 2.

[5] = system: skeletal (rear leg) muscle homogenates; assay: Proteolytic index of muscle homogenates (autoproteolysis, Ninhidrin); type: biochemical, rat
Description: In-vitro tests were performed on the skeletal (rear leg) muscles of 17 white laboratory rats. Preliminary research efforts determined 1) the preparation method for muscle homogenates, 2) estimation of level of the proteolytic activity by measuring for the concentration of free amino acids, a result of protein cleavage, and 3) the optimal time of authoproteolysis.
The preparation of muscle homogenates. Efforts were made to disassemble the muscle tissue gently, without disruption of the lysosomes, though with sufficient strength to ensure a homogeneous suspension of muscle cells in physiological solution (PBS). Potter's homogenator was used with a glass barrel and a Teflon pestle. Determination of the optimal treatment was based on experimental data and the activity of the proteases during the incubation of the homogenates at 37° C. If lysosomes were damaged during preparation of the homogenates, then there was no increase in concentration of free amino acids during incubation. Undamaged lysosomes in the homogenate would continue their proteolytic activity during incubation. For the best preparation of the homogenate, the muscles were separated from the connecting tissue, weighed and cut up with scissors in a Petri dish for 10 minutes. […]
After the incubation of samples, the protein concentration was estimated by the standard Bio-Rad method. To estimate proteolytic activity based on the concentration of free amino acids found in the sample, three methods were tried: 1) absorbance at 280 nm, 2) concentration of amino acid tyrosine by estimation with Folin reagent, and 3) concentration of end amino groups with Ninhidrin reagent. Only method 3 provided accurate results, so the proteolytic index was measured based on the Ninhidrin reagent. […] Samples were boiled in a water bath for 10 minutes, chilled and the absorbance at 560 nm was measured. […] Concentrations of free amino acids and protein in mg/ml could therefore be determined for both cases. The ratio of free amino acids per proteins in the sample was calculated as the proteolytic index. […]

Drosophila = assay: X-ray caused loss of X-chromosomes in late oocyte of Drosophila; type: in vivo; conditions: 1000 Roentgens
[6] = standard tests by Dr. Kirk Sperber, unpublished data; cited from earlier work

For “complex of 2,4-dihydroxy-6-methylpyrimidine with N-methyl-D-glucamine [Glucural]”, the “number of cells per ml, Moderate damage” value (MEL cells; Glucural 25 mkg/ml) was 58 ± 3 x 10^4, the “number of cells per ml, Moderate damage” value (MEL cells; Glucural 50 mkg/ml) was 76 ± 1 x 10^4 and the “number of cells per ml, Moderate damage” value (MEL cells; Glucural 100 mkg/ml) was 82 ± 1 x 10^4. For the same substance, the “number of cells per ml, Moderate damage” value (MEL cells; Glucural 200 mkg/ml) was 163 ± 3 x 10^4, the “percentage of dead cells (trypan blue test)” value (“percentage of dead cells” below) (THP-1 cells [1]; Glucural 10 mkg/ml, 3 days of growing) was 2.1 ± 0.5% and the “percentage of dead cells” value (THP-1 cells [1]; Glucural 10 mkg/ml, 4 days of growing) was 7.2 ± 1.3%. The “percentage of dead cells” value (THP-1 cells [1]; Glucural 10 mkg/ml, 10 days of growing) was 10.7 ± 0.2%, the “percentage of dead cells” value (THP-1 cells [1]; Glucural 10 mkg/ml, 14 days of growing) was 15.3 ± 0.2% and the “percentage of dead cells” value (THP-1 cells [1]; Glucural 20 mkg/ml, 3 days of growing) was 5.5 ± 0.25%. The “percentage of dead cells” value (THP-1 cells [1]; Glucural 20 mkg/ml, 4 days of growing) was 0%, the “percentage of dead cells” value (THP-1 cells [1]; Glucural 20 mkg/ml, 10 days of growing) was 10.85 ± 0.35% and the “percentage of dead cells” value (THP-1 cells [1]; Glucural 20 mkg/ml, 14 days of growing) was 15.3 ± 0.5%. The “optimal dose for THP-1 cells” value (THP-1 cells [2]) was 25 mkg/ml, the “number of live cells per 0.1 ml” value (THP-1 cells [2]; B Control + Glucural 25 mkg/ml, assay #1, 5 days growing) was 241 ± 24 per 0.1 ml and the “number of live cells per 0.1 ml” value (THP-1 cells [2]; B Control + Glucural 25 mkg/ml, assay #3, 4 days growing) was 136 ± 5 per 0.1 ml. For the same substance, the “number of live cells per 0.1 ml” value (THP-1 cells [2]; B Control + Glucural 25 mkg/ml, assay #4, 4 days growing) was 160 ± 22 per 0.1 ml, the “number of live cells per 0.1 ml” value (THP-1 cells [2]; D DMSO shock + Glucural 25 mkg/ml, assay #1, 5 days growing) was 228 ± 48 per 0.1 ml and the “number of live cells per 0.1 ml” value (THP-1 cells [2]; D DMSO shock + Glucural 25 mkg/ml, assay #2, 6 days growing) was 184 ± 19 per 0.1 ml. The “number of live cells per 0.1 ml” value (THP-1 cells [2]; D DMSO shock + Glucural 25 mkg/ml, assay #3, 4 days growing) was 137 ± 6 per 0.1 ml, the “number of live cells per 0.1 ml” value (THP-1 cells [2]; D DMSO shock + Glucural 25 mkg/ml, assay #4, 4 days growing) was 222 ± 42 per 0.1 ml and the “Percent of well-bottom covered by cells” value ([3]; Glucural 40 mkg/ml) was 2-5%. For the same substance, the “Percent of well-bottom covered by cells” value ([3]; Glucural 400 mkg/ml) was 70-80%, the “increase of life span of rat embryo brain neuron cell culture” value [4] was “more than two fold” and the “number of live neurons vs culture without Glucural” value ([4]; after 7 days) was “nearly triple”. For the same substance, the “number of live neurons vs culture without Glucural” value ([4]; after one day) was “more than double”, the “decrease of proteolytic activity in muscles” value ([5]; Glucural 50 mkg/ml (Group 4)) was 36% and the “decrease of proteolytic activity in muscles” value ([5]; Glucural 100 mkg/ml (Group 5)) was 51%. The reduction of autoproteolysis ([5]; Glucural less than 50 mkg/ml) was “not sufficient to reduce autoproteolysis”, the “Frequency of the loss of X-chromosomes, %” value (from here on “Frequency of the loss … %”) (Drosophila; 1.0 mkg/female) was 1.7 ± 0.21% and the “Frequency of the loss … %” value (Drosophila; 2.0 mkg/female) was 1.1 ± 0.20%. For the same substance, the “Frequency of the loss … %” value (Drosophila; 2.5 mkg/female) was 0.9 ± 0.18%, the “Frequency of the loss … %” value (Drosophila; 5.0 mkg/female) was 0.7 ± 0.14% and the “Frequency of the loss … %” value (Drosophila; 10.0 mkg/female) was 1.2 ± 0.19%. For the same substance, the “anti-inflammatory action compared with thalidomide” value [6] was “equal anti-inflammatory action as thalidomide”.
